Data taken from patent publication US8022099B2, “N-benzyl pyrrolidine derivatives” (Hoffmann-La Roche Inc., priority 2008, dated 2011).

Biological target: T1, human NK3 receptor (Homo sapiens, UniProt P29371)
T1 construct: expressed in transfected cells; host or cells: HEK293 cells (transient expression), membrane preparation
T1 sequence (P29371 1-465): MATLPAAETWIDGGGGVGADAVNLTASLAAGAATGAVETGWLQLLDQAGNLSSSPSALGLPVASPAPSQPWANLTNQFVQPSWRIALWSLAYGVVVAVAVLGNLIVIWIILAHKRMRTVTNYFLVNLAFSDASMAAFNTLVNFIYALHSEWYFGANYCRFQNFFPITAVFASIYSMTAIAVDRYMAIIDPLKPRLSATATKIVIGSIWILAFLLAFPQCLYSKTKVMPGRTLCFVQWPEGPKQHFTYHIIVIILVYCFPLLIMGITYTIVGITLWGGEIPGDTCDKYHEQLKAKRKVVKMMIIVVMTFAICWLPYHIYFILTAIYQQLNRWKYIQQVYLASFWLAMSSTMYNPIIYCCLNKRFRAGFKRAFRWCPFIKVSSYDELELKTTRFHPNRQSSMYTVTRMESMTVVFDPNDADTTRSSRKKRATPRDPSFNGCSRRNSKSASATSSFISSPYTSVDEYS
Assay: [3H]SR142801 competition binding assay
Settings: hNK3 receptor binding, [3H]SR142801, membranes from HEK293 cells transiently expressing recombinant human NK3 receptor
Experimental: [^3H]SR142801 Competition Binding Assay
hNK3 receptor binding experiment were performed using [^3H]SR142801 (Catalog No. TRK1035, specific activity: 74.0 Ci/mmol, Amersham, GE Healthcare UK limited, Buckinghamshire, UK) and membrane isolated from HEK293 cells transiently expressing recombinant human NK3 receptor. After thawing, the membrane homogenates were centrifuged at 48,000×g for 10 min at 4° C., the pellets were resuspended in the 50 mM Tris-HCl, 4 mM MnCl2, 1 μM phosphoramidon, 0.1% BSA binding buffer at pH 7.4 to a final assay concentration of 5 μg protein/well. For inhibition experiments, membranes were incubated with [^3H]SR142801 at a concentration equal to KD value of radioligand and 10 concentrations of the inhibitory compound (0.0003-10 μM) (in a total reaction volume of 500 μl) for 75 min at room temperature (RT). At the end of the incubation, membranes were filtered onto unitfilter (96-well white microplate with bonded GF/C filter preincubated 1 h in 0.3% PEI+0.3% BSA, Packard BioScience, Meriden, Conn.) with a Filtermate 196 harvester (Packard BioScience) and washed 4 times with ice-cold 50 mM Tris-HCl, pH 7.4 buffer. Nonspecific binding was measured in the presence of 10 μM SB222200 for both radioligands. The radioactivity on the filter was counted (5 min) on a Packard Top-count microplate scintillation counter with quenching correction after addition of 45 μl of microscint 40 (Canberra Packard S. A., Zürich, Switzerland) and shaking for 1 h. Inhibition curves were fitted according to the Hill equation: y=100/(1+(x/IC50)^nH), where nH=slope factor using Excel-fit 4 software (Microsoft). IC50 values were derived from the inhibition curve and the affinity constant (Ki) values were calculated using the Cheng-Prussoff equation Ki=IC50/(1+[L]/KD) where [L] is the concentration of radioligand and KD is its dissociation constant at the receptor, derived from the saturation isotherm. All experiments were performed in duplicate and the mean±standard error (SEM) of the individual Ki values was calculated.

Row | Ki [nM] | SMILES
1 | 8.8 | CC(=O)N1CCN(CC(=O)N2C[C@H](c3ccc(Cl)c(Cl)c3)[C@@H](N(C)Cc3ccc(C(F)(F)F)c(F)c3)C2)CC1 (racemic) [Example 138, 2-(4-Acetyl-piperazin-1-yl)-1-{(3SR,4RS)-3-(3,4-dichloro-phenyl)-4-[(3-fluoro-4-trifluoromethyl-benzyl)-methyl-amino]-pyrrolidin-1-yl}-ethanone]
2 | 26.8 | COc1cccc(N2CCN(C(=O)N3C[C@H](c4ccc(Cl)c(Cl)c4)[C@@H](N(C)Cc4ccc(C(F)(F)F)c(F)c4)C3)CC2)n1 (racemic) [Example 77, {(3SR,4RS)-3-(3,4-Dichloro-phenyl)-4-[(3-fluoro-4-trifluoromethyl-benzyl)-methyl-amino]-pyrrolidin-1-yl}-[4-(6-methoxy-pyridin-2-yl)-piperazin-1-yl]-methanone]
3 | 8.6 | CN(Cc1ccc(C(F)(F)F)c(F)c1)[C@H]1CN(C(=O)N2CCN(c3ncccn3)CC2)C[C@@H]1c1ccc(Cl)c(Cl)c1 (racemic) [Example 63, {(3SR,4RS)-3-(3,4-Dichloro-phenyl)-4-[(3-fluoro-4-trifluoromethyl-benzyl)-methyl-amino]-pyrrolidin-1-yl}-(4-pyrimidin-2-yl-piperazin-1-yl)-methanone]
4 | 13.8 | CC(=O)N(C)C1CCN(CC(=O)N2C[C@H](c3ccc(Cl)c(Cl)c3)[C@@H](N(C)Cc3ccc(C(F)(F)F)c(F)c3)C2)CC1 (racemic) [Example 147, N-[1-(2-{(3SR,4RS)-3-(3,4-Dichloro-phenyl)-4-[(3-fluoro-4-trifluoromethyl-benzyl)-methyl-amino]-pyrrolidin-1-yl}-2-oxo-ethyl)-piperidin-4-yl]-N-methyl-acetamide]
5 | 57.2 | CN(Cc1ccc(C(F)(F)F)c(F)c1)[C@H]1CN(C(=O)CCCCn2ccnc2)C[C@@H]1c1ccc(Cl)c(Cl)c1 (racemic) [Example 91, 1-{(3SR,4RS)-3-(3,4-Dichloro-phenyl)-4-[(3-fluoro-4-trifluoromethyl-benzyl)-methyl-amino]-pyrrolidin-1-yl}-5-imidazol-1-yl-pentan-1-one]
6 | 51.2 | CN(C)CCCCC(=O)N1C[C@H](c2ccc(Cl)c(Cl)c2)[C@@H](N(C)Cc2ccc(C(F)(F)F)c(F)c2)C1 (racemic) [Example 87, 1-{(3SR,4RS)-3-(3,4-Dichloro-phenyl)-4-[(3-fluoro-4-trifluoromethyl-benzyl)-methyl-amino]-pyrrolidin-1-yl}-5-dimethylamino-pentan-1-one]
7 | 24.3 | CN(Cc1ccc(C(F)(F)F)c(F)c1)[C@H]1CN(C(=O)CCCCC(=O)c2ccccn2)C[C@@H]1c1ccc(Cl)c(Cl)c1 (racemic) [Example 95, 1-{(3SR,4RS)-3-(3,4-Dichloro-phenyl)-4-[(3-fluoro-4-trifluoromethyl-benzyl)-methyl-amino]-pyrrolidin-1-yl}-6-pyridin-2-yl-hexane-1,6-dione]
8 | 62.2 | CC(=O)NC1CCN(CCCCC(=O)N2C[C@H](c3ccc(Cl)c(Cl)c3)[C@@H](N(C)Cc3ccc(C(F)(F)F)c(F)c3)C2)CC1 (racemic) [Example 105, N-[1-(5-{(3SR,4RS)-3-(3,4-Dichloro-phenyl)-4-[(3-fluoro-4-trifluoromethyl-benzyl)-methyl-amino]-pyrrolidin-1-yl}-5-oxo-pentyl)-piperidin-4-yl]-acetamide]
9 | 33.4 | CN(Cc1ccc(C(F)(F)F)c(F)c1)[C@H]1CN(C(=O)CN2CCNCC2)C[C@@H]1c1ccc(Cl)c(Cl)c1 (racemic) [Example 131, 1-{(3SR,4RS)-3-(3,4-Dichloro-phenyl)-4-[(3-fluoro-4-trifluoromethyl-benzyl)-methyl-amino]-pyrrolidin-1-yl}-2-piperazin-1-yl-ethanone]
10 | 10.5 | CN(Cc1ccc(C(F)(F)F)c(F)c1)[C@H]1CN(C(=O)N2CCN(c3ccccc3C#N)CC2)C[C@@H]1c1ccc(Cl)c(Cl)c1 (racemic) [Example 70, 2-(4-{(3SR,4RS)-3-(3,4-Dichloro-phenyl)-4-[(3-fluoro-4-trifluoromethyl-benzyl)-methyl-amino]-pyrrolidine-1-carbonyl}-piperazin-1-yl)-benzonitrile]
11 | 15.4 | C[C@H]1CN(C(=O)N2C[C@H](c3ccc(Cl)c(Cl)c3)[C@@H](N(C)Cc3ccc(C(F)(F)F)c(F)c3)C2)CCN1S(C)(=O)=O (mixture of isomers) [Example 59, {(3SR,4RS)-3-(3,4-Dichloro-phenyl)-4-[(3-fluoro-4-trifluoromethyl-benzyl)-methyl-amino]-pyrrolidin-1-yl}-((S)-4-methanesulfonyl-3-methyl-piperazin-1-yl)-methanone]
12 | 14.6 | CN(Cc1ccc(C(F)(F)F)c(F)c1)[C@H]1CN(C(=O)N2CCN(S(C)(=O)=O)CC2)C[C@@H]1c1ccc(Cl)c(F)c1 (racemic) [Example 81, {(3SR,4RS)-3-(4-Chloro-3-fluoro-phenyl)-4-[(3-fluoro-4-trifluoromethyl-benzyl)-methyl-amino]-pyrrolidin-1-yl}-(4-methanesulfonyl-piperazin-1-yl)-methanone]
13 | 26.3 | CN(Cc1ccc(C(F)(F)F)c(F)c1)[C@H]1CN(C(=O)CN2CCC(O)CC2)C[C@@H]1c1ccc(Cl)c(Cl)c1 (racemic) [Example 132, 1-{(3SR,4RS)-3-(3,4-Dichloro-phenyl)-4-[(3-fluoro-4-trifluoromethyl-benzyl)-methyl-amino]-pyrrolidin-1-yl}-2-(4-hydroxy-piperidin-1-yl)-ethanone]
14 | 5.9 | CN(Cc1ccc(C(F)(F)F)c(F)c1)[C@H]1CN(C(=O)CN2CCC(N(C)S(C)(=O)=O)CC2)C[C@@H]1c1ccc(Cl)c(Cl)c1 (racemic) [Example 144, N-[1-(2-{(3SR,4RS)-3-(3,4-Dichloro-phenyl)-4-[(3-fluoro-4-trifluoromethyl-benzyl)-methyl-amino]-pyrrolidin-1-yl}-2-oxo-ethyl)-piperidin-4-yl]-N-methyl-methanesulfonamide]
15 | 99.7 | CN(Cc1ccc(C(F)(F)F)c(F)c1)[C@H]1CN(C(=O)CNCCC#N)C[C@@H]1c1ccc(Cl)c(Cl)c1 (racemic) [Example 127, 3-(2-{(3SR,4RS)-3-(3,4-Dichloro-phenyl)-4-[(3-fluoro-4-trifluoromethyl-benzyl)-methyl-amino]-pyrrolidin-1-yl}-2-oxo-ethylamino)-propionitrile]
16 | 20.8 | CN(Cc1ccc(C(F)(F)F)c(F)c1)[C@H]1CN(C(=O)N2CCC(O)(c3ccncc3)CC2)C[C@@H]1c1ccc(Cl)c(Cl)c1 (racemic) [Example 80, {(3SR,4RS)-3-(3,4-Dichloro-phenyl)-4-[(3-fluoro-4-trifluoromethyl-benzyl)-methyl-amino]-pyrrolidin-1-yl}-(4-hydroxy-3,4,5,6-tetrahydro-2H-[4,4′]bipyridinyl-1-yl)-methanone]
17 | 16.9 | CN(Cc1ccc(C(F)(F)F)c(F)c1)[C@H]1CN(C(=O)CN2CCN(S(=O)(=O)N(C)C)CC2)C[C@@H]1c1ccc(Cl)c(Cl)c1 (racemic) [Example 116, 4-(2-{(3SR,4RS)-3-(3,4-Dichloro-phenyl)-4-[(3-fluoro-4-trifluoromethyl-benzyl)-methyl-amino]-pyrrolidin-1-yl}-2-oxo-ethyl)-piperazine-1-sulfonic acid dimethylamide]
